Patent US20260216194A1 (Cyrano Therapeutics, Inc., priority 2020, published 2026)

Legend:
Assay type in all cases: in vivo, human
[1] = test system: patient who had loss of taste and smell from COVID-19; assay: Psychophysical smell test, forced-choice three-stimuli stepwise-staircase technique (detection and recognition thresholds for four odors)
Description: The Patient initially reported their sensory dysfunction as either loss of taste (i.e., flavor) and/or smell function. This subjective response was documented by objective psychophysical measurements of olfactory function administered to each patient by use of a forced-choice, three-stimuli, stepwise-staircase technique in a fixed, controlled design (1, 2). Efficacy of this technique and results of testing were previously documented in a double-blind clinical trial (2). Four odors were used; they were pyridine (dead-fish odor), nitrobenzene (bitter-almond odor), thiophene (petroleum-like odor) and amyl acetate (banana-oil odor). Detection thresholds (DT), and recognition thresholds (RT) values for each odor were determined as previously described (1, 2). Thresholds were converted into bottle units (BU) as previously described (2) and results reported as M of correct responses for each odor in each treatment group. References: (1) Henkin, R. I. Evaluation and treatment of human olfactory dysfunction, in Otolaryngology (English, G. M. Ed.), Lippincott, Philadelphia, 1993, Vol. 2, pp. 1-86. (2) Henkin, R. I., Schecter, P. J., Friedewald, W. T., DeMets, D. L., Raff, M. S. A double blind study of the effects of zinc sulfate on taste and smell dysfunction. Amer. J. Med. Sci. 1976; 272:285-299.
(§1) Theophylline was administered to a patient who had loss of taste and smell from COVID-19. A formulation containing 80 μg of theophylline was administered via two actuations from nasal spray device once per day. Prior to the initial administration of theophylline, a baseline smell test was performed. A follow-up smell test was performed 3 months after the initial administration. […] The patient's detection threshold (DT) and recognition threshold (RT) for pyridine (Pyr), nitrobenzene (NO2B), thiophene (Thio) and amyl acetate (AA) was determined before treatment (pre) and after treatment (3M). In all four odorant tests, the patient's detection threshold and recognition threshold improved. An improvement of 1 bottle unit means that a patient could detect and/or recognize an odorant that was 10 times lower in concentration, when compared to baseline. For example, the recognition threshold (RT) of AA improved by 8 bottle units, also equivalent to an improvement of 8 orders of magnitude. In this case, the patient could detect a concentration of AA that was 108 lower in concentration. Bottle unit numbers that are 5 or lower are considered to be in the range of normal.

[2] = test system: patient who had loss of taste and smell from COVID-19; assay: Side effects during intranasal theophylline treatment; settings: 80 μg theophylline via two actuations from nasal spray device once per day, 3 months
Protocol: as §1

[3] = test system: patient diagnosed or previously diagnosed with COVID-19 and having at least partial smell or taste loss; assay: Example 1: intranasal theophylline formulation in a patient with smell or taste loss associated with COVID-19
Protocol: A patient diagnosed or previously diagnosed with COVID-19 and having at least partial smell or taste loss associated with COVID-19 is treated with an intranasally administered a formulation comprising theophylline, which is given once per day, in each naris, for about 30 days, 60 days, or 90 days.
Administration of the formulation produces an increase in the patient's sonic hedgehog levels or cyclic nucleotide levels within about 30 days, 60 days, or 90 days.

[4] = 3 months after initial administration, 80 μg theophylline intranasal once per day, baseline (Pre) 10, 5 or lower is normal
[5] = 3 months after initial administration, 80 μg theophylline intranasal once per day, baseline (Pre) 11, 5 or lower is normal
[6] = 3 months after initial administration, 80 μg theophylline intranasal once per day, baseline (Pre) 12, 5 or lower is normal

Cn1c(=O)c2[nH]cnc2n(C)c1=O [theophylline]
Detection threshold (DT), thiophene (Thio) [1, 4]: 4 bottle units
Recognition threshold (RT), thiophene (Thio) [1, 4]: 4 bottle units
Detection threshold (DT), amyl acetate (AA) [1, 5]: 4 bottle units
Detection threshold (DT), nitrobenzene (NO2B) [1, 5]: 9 bottle units
Detection threshold (DT), pyridine (Pyr) [1, 5]: 7 bottle units
Recognition threshold (RT), pyridine (Pyr) [1, 5]: 7 bottle units
Recognition threshold (RT), amyl acetate (AA) [1, 6]: 4 bottle units
Recognition threshold (RT), nitrobenzene (NO2B) [1, 6]: 9 bottle units
Improvement of recognition threshold (RT) of AA ([1]; 3 months vs baseline, 1 bottle unit = 10 times lower concentration): 8 bottle units
Detection threshold and recognition threshold in all four odorant tests ([1]; 3 months vs baseline, pyridine, nitrobenzene, thiophene, amyl acetate): improved
Side effects [2]: No side effects were reported
Patient's ability to taste and smell ([3]; intranasal once per day in each naris for about 30, 60 or 90 days): significant increase
Patient's sonic hedgehog levels or cyclic nucleotide levels ([3]; intranasal once per day in each naris, within about 30 days, 60 days, or 90 days): increase
